Reference: patent publication US20210113563A1, “4-(4-CYANO-2-THIOARYL)DIHYDROPYRIMIDINONES FOR TREATING CHRONIC WOUNDS” (pH Pharma Co., Ltd., priority 2015, published 2021)

What was measured:
[1] = Exposure in plasma and skin of diabetic mouse (db/db); assay type: in vivo; conditions: for Total concentration in skin: day 8; for Total concentration in plasma, geo mean: day 8, 20 h after last treatment
Description: Upon scarification on day 8, 20 h after the last treatment, arterial blood samples were collected into EDTA citrate serum sample tubes for LC/MSMS based quantification of compound exposure.

[2] = test system: wounds of diabetic mouse (db/db); experiment: Visual wound size reduction in diabetic mouse (db/db); assay type: in vivo
Description: The wounding was conducted in the following manner: • 1) db/db mice were anaesthetized with Isoflurane/O2/N2O (2.5-3.5%/800 ml/min/500 ml/min), and placed on a heating pad upon induction after application of eye ointment • 2) mice were shaven and Pilca was applied for 3-5 minutes to remove the fur and fine hairs 3) two dorsal full thickness wounds were placed with a 8 mm punch biopsie tool after wiping the skin with ethanol and wound size was measured immediately • 4) mice were treated with Temgesic and kept on warming pad until recovery from anaesthesia
Wound Size Measurement: Wound size was measured with a sliding caliper. […] Assuming an elliptic shape, wound area was calculated with:
Wound size reduction on day i was calculated from the initial area on day 0 post wounding: […]

[3] = test system: myeloperoxidase (MPO); experiment: Myeloperoxidase (MPO) activity in wound tissue of diabetic mice (db/db); assay type: in vivo; conditions: db/db mouse
Description: MPO determination is based on the oxidation of H2O2 by a peroxidase in the presence of TMB (3,3′5,5′-Tetramethylbenzidin). The results were quantified with a human MPO standard curve prepared in homogenate buffer, which also serves as a blank. Samples were diluted fifteen fold in homogenate buffer. Of each sample, standard and blank 20 μL were dispensed in a clear flat bottom MWP at RT. Following that 100 μL of fresh 0.2 mM TMB in AC-POX buffer are added and the reaction was started by adding 12.5 μL of 1 mM H2O2 in AC-POX buffer. After 5-10 min 22.5 μL of 1 N H2SO4 was added to stop the reaction and plates were vortexed briefly to evenly distribute the newly developed yellow color. […] Absorption was measured at k=450 nm and the amount of MPO in samples was calculated from standard curve in SoftmaxPro 6.4 after subtracting the blank.
To assess neutrophil activity in wound tissue samples, myeloperoxidase activity was measured.

[4] = test system: collagen in ulcer tissue; experiment: Collagen deposition in chronic skin lesions of adriamycin-treated rats, Ladewig staining; assay type: in vivo, rat; conditions: 10 mg/kg BW o.d. p.o., normal skin = 0, no blue staining = −10
Description: Vehicle: • DEPO—DMSO, Ethanol, Peanut Oil 5/3/92 (V/V/V) o.d., p.o., 5 ml/kg BW
Day 0: • Animal randomization, marking, inhalation anesthesia: isoflurane, O2, N2O mixture, shaving of lower back, the animals remain on warming pads in order to avoid cooling down during the adriamycin injection, pain prevention with Temgesic s.c.
Depot set: 3 intradermal injections of 0.15 ml adriamycin (2 mg/ml) per animal in front and rear back, size measurement of the depot via caliper.
(§1) On day 2, 4, 7, 9, 11, 14, 16, 18, 21, 23, 25 and 28 • inhalation anesthesia: isoflurane, O2, N2O mixture • size measurement of the depot and photos Day 28 section • inhalation anesthesia: isoflurane, O2, N2O mixture under anesthesia and then dislocation of the cervical spine • size measurement of the depot and the incision wound and photos • Former depots were harvested by punch biopsies • Wound 1/custodian of any animal->in liquid N2 for peroxidase and elastase determination • Wound 2/custodian of any animal->in liquid N2 for Hydroxyproline determination • Wound 3/custodian of any animal->in formalin fixed for histological studies • Samples were stored for further procedures at −80° C.
Paraffin-embedded skin samples: the skin piece is placed with the downside on a piece of cork and 4 with needles and transferred into formalin (3.7% in PBS). […]

[5] = test system: collagen (hydroxyproline); experiment: Hydroxyproline (HYP) assay in skin lesions of adriamycin-treated rats; assay type: in vivo, rat; conditions: 10 mg/kg BW o.d. p.o.
From the text: as §1

[6] = test system: collagen type I and collagen type III in ulcer tissue; experiment: Collagen type I and III in chronic skin lesions of adriamycin-treated rats, Sirius red staining; assay type: in vivo, rat; conditions: for Collagen type I / Collagen type III: adriamycin-treated rats, 10 mg/kg BW o.d.
From the text: as §1
After sufficient time in formalin (24-72 h), the samples were trimmed to an appropriate size and transferred to histology-cassettes. The histo-cassettes are watered 2 h under running tap water at room temperature. The drainage and waxing was done using a Leica ASP200, the samples were embedded in paraffin, sectioned by microtome and mounted on slides. The paraffin sections were stained depending on the question (Ladewig or Sirius Red)
To assess the content of collagen type I (mature form) and collagen type III (newly formed) in ulcer tissue, Sirius red staining was performed according to standard protocols.

Total concentration in skin ([1]; 0.03 mg/kg BW o.d. p.o.): 0.01 µM
Total concentration in plasma, geo mean ([1]; 0.03 mg/kg BW o.d. p.o.): 0.0029 µM
Total concentration in skin ([1]; 0.1 mg/kg BW o.d. p.o.): 0.03 µM
Total concentration in plasma, geo mean ([1]; 0.1 mg/kg BW o.d. p.o.): 0.011 µM
Total concentration in skin ([1]; 0.3 mg/kg BW o.d. p.o.): 0.06 µM
Total concentration in plasma, geo mean ([1]; 0.3 mg/kg BW o.d. p.o.): 0.027 µM
Total concentration in skin ([1]; 1.0 mg/kg BW o.d. p.o.): 0.16 µM
Total concentration in plasma, geo mean ([1]; 1.0 mg/kg BW o.d. p.o.): 0.067 µM
Total concentration in skin ([1]; 3.0 mg/kg BW o.d. p.o.): 0.30 ± 0.06 µM
Total concentration in plasma, geo mean ([1]; 3.0 mg/kg BW o.d. p.o.): 0.13 µM
Total concentration in skin ([1]; 10.0 mg/kg BW o.d. p.o.): 0.54 µM
Total concentration in plasma, geo mean ([1]; 10.0 mg/kg BW o.d. p.o.): 0.17 µM
EC50 ([2]; in vivo, read-out: Potency (EC50) to improve wound size reduction): 4.5 nM
SMILES: CC1=C(C#N)[C@@H](c2ccc(C#N)cc2S(C)(=O)=O)N(C)C(=O)N1c1cccc(C(F)(F)F)c1 [Example 5, (4 S)-4-[4-Cyano-2-(methylsulfonyl)phenyl]-3,6-dimethyl-2-oxo-1-[3-(trifluoromethyl)phenyl]-1,2,3,4-tetrahydropyrimidine-5-carbonitrile]
Visual wound size ([2]; 0.03 mg/kg BW o.d. p.o.): 98.5 % initial area at day 8
Visual wound size ([2]; 0.1 mg/kg BW o.d. p.o.): 86.07 % initial area at day 8
Visual wound size ([2]; 0.3 mg/kg BW o.d. p.o.): 72 % initial area at day 8
Visual wound size ([2]; 1.0 mg/kg BW o.d. p.o.): 71.16 % initial area at day 8
Visual wound size ([2]; 3.0 mg/kg BW o.d. p.o.): 68.1 % initial area at day 8
Visual wound size ([2]; 10.0 mg/kg BW o.d. p.o.): 54.85 % initial area at day 8
Neutrophil dependent inflammatory activity in wound tissue (MPO activity) ([3]; 0.03 mg/kg BW o.d.): 0.00361 Peroxidase Activity/μg Protein
Neutrophil dependent inflammatory activity in wound tissue (MPO activity) ([3]; 0.1 mg/kg BW o.d.): 0.00029 Peroxidase Activity/μg Protein
Neutrophil dependent inflammatory activity in wound tissue (MPO activity) ([3]; 0.3 mg/kg BW o.d.): 0.00043 Peroxidase Activity/μg Protein
Neutrophil dependent inflammatory activity in wound tissue (MPO activity) ([3]; 1.0 mg/kg BW o.d.): 0.00043 Peroxidase Activity/μg Protein
Neutrophil dependent inflammatory activity in wound tissue (MPO activity) ([3]; 3.0 mg/kg BW o.d.): 0.00027 Peroxidase Activity/μg Protein
Neutrophil dependent inflammatory activity in wound tissue (MPO activity) ([3]; 10.0 mg/kg BW o.d.): 0.00016 Peroxidase Activity/μg Protein
Inhibition of MPO activity in wound tissue (in words) ([3]; from 0.1 mg/kg): potently and effectively inhibited MPO activity in wound tissue
Ladewig score [4]: −1.38 (n = 8)
Hydroxyproline [5]: 5169 (n = 10)
Collagen type I ([6]; d 14-28, Sirius red): 9.7
Collagen type III ([6]; d 14-28, Sirius red): 46.69
Collagen type I ([6]; d 21-37, Sirius red): 8.8
Collagen type III ([6]; d 21-37, Sirius red): 72.23
Collagen type III in Adriamycin-induced lesions (in words) ([6]; rats, after two weeks of treatment): strong increase of collagen type III
